Data as given in patent US4200744A, “Substituted 7α-methoxy-7β[(2,3-dioxo-1-piperazinyl)carbonylaminophenylace tamido]cephalosporins” (Toyama Chemical Company, Limited, priority 1977, dated 1980).

How the values were obtained:
[1] = tested on: Acinetobacter calcoaceticus A-6; assay: MIC by plate method; assay type: cell-based; settings: Heart Infusion agar pH 7.4, inoculum 10^4 cells per plate (10^6 cells/ml)
Experimental: (§1) The minimum inhibitory concentration (MIC) was determined by the plate method disclosed in "Chemotherapy" (Japan), Vol. 16, (1968), pages 98-99. The culture medium used was a Heart Infusion agar (pH 7.4). The number of the cells per plate used in the inoculum was 10^4 (10^6 cells/ml).

[2] = tested on: Citrobacter spp Toyama Citizen No. 31; assay: MIC by plate method; assay type: cell-based; settings: Heart Infusion agar pH 7.4, inoculum 10^4 cells per plate (10^6 cells/ml)
Experimental: as §1

[3] = tested on: Pseudomonas aeruginosa IFO-3445; assay: MIC by plate method; assay type: cell-based; parameters: unit not given here; settings: Heart Infusion agar pH 7.4, inoculum 10^4 cells per plate (10^6 cells/ml)
Experimental: as §1

[4] = tested on: Serratia marcescens W-8; assay: MIC by plate method; assay type: cell-based; parameters: unit not given here; settings: Heart Infusion agar pH 7.4, inoculum 10^4 cells per plate (10^6 cells/ml)
Experimental: as §1

[5] = tested on: Citrobacter freundii GN 346 (Cephalosporinase-producing bacterium); assay: MIC by plate method; assay type: cell-based; parameters: unit not given here; settings: Heart Infusion agar pH 7.4, inoculum 10^4 cells per plate (10^6 cells/ml)
Experimental: as §1

[6] = tested on: Klebsiella pneumoniae Y-50; assay: MIC by plate method; assay type: cell-based; parameters: unit not given here; settings: Heart Infusion agar pH 7.4, inoculum 10^4 cells per plate (10^6 cells/ml)
Experimental: as §1

[7] = tested on: Enterobacter cloacae IID 977; assay: MIC by plate method; assay type: cell-based; parameters: unit not given here; settings: Heart Infusion agar pH 7.4, inoculum 10^4 cells per plate (10^6 cells/ml)
Experimental: as §1

[8] = tested on: Proteus vulgaris GN 76 (Cephalosporinase-producing bacterium); assay: MIC by plate method; assay type: cell-based; parameters: unit not given here; settings: Heart Infusion agar pH 7.4, inoculum 10^4 cells per plate (10^6 cells/ml)
Experimental: as §1

[9] = tested on: Escherichia coli NIHJ; assay: MIC by plate method; assay type: cell-based; parameters: unit not given here; settings: Heart Infusion agar pH 7.4, inoculum 10^4 cells per plate (10^6 cells/ml)
Experimental: as §1

[10] = tested on: Staphylococcus aureus F-19 (Penicillinase-producing bacterium); assay: MIC by plate method; assay type: cell-based; parameters: unit not given here; settings: Heart Infusion agar pH 7.4, inoculum 10^4 cells per plate (10^6 cells/ml)
Experimental: as §1

[11] = target: T1, Cephalosporinase Serratia W-8 (Serratia marcescens, UniProt P18539); assay: Resistance against β-lactamase, iodometric assay; assay type: biochemical; settings: activity of control Cephalorigine assumed as 100
T1 construct: W-8; endogenous in cells; host or cells: Serratia W-8
T1 sequence (P18539 22-376): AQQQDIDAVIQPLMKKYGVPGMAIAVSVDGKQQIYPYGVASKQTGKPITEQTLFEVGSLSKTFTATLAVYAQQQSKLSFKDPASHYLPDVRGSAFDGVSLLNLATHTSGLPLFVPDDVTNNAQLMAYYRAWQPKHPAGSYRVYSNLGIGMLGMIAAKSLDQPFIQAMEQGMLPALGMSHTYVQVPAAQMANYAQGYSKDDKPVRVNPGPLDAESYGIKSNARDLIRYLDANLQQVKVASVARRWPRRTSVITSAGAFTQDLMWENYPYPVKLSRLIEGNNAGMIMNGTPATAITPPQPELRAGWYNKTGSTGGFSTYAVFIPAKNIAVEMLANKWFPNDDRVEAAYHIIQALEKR
Experimental: (§2) The resistant activity against β-lactamase of the product obtained above was as shown in Table 3 in which comparisons are shown:
(§3) The resistance of each compound against β-lactamase was determined by the iodometric assay method.

[12] = target: T2, Cephalosporinase Pseudomonas aeruginosa TN 918 (Pseudomonas aeruginosa, UniProt P24735); assay: Resistance against β-lactamase, iodometric assay; assay type: biochemical; settings: activity of control Cephalorigine assumed as 100
T2 construct: TN 918; endogenous in cells; host or cells: Pseudomonas aeruginosa TN 918
T2 sequence (P24735 27-397): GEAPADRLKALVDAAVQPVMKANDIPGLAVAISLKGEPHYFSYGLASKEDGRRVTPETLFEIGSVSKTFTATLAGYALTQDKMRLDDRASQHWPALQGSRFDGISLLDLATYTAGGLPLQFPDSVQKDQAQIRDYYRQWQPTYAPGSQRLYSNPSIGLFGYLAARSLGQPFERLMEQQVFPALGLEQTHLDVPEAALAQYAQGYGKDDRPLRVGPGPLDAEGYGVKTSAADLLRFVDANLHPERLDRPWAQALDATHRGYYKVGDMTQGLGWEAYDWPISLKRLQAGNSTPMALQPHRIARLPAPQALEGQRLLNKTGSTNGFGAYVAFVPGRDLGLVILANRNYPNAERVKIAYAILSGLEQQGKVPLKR
Experimental: as §2, §3

[13] = tested on: Penicillinase E. coli TK-3; assay: Resistance against β-lactamase, iodometric assay; assay type: biochemical; settings: activity of control potassium Penicillin G assumed as 100
Experimental: as §2, §3

## CCN1CCN(C(=O)N[C@@H](C(=O)N[C@]2(OC)C(=O)N3C(C(=O)O)=C(CSc4nnnn4C)CS[C@@H]32)c2ccccc2)C(=O)C1=O [Compound No. 1, 7β-[D(-)-α-(4-ethyl-2,3-dioxo-1-piperazinylcarbonylamino)phenylacetamido]-7α-methoxy-3-[5-(1-methyl-1,2,3,4-tetrazolyl)thiomethyl]-Δ^3-cephem-4-carboxylic acid]
[1]
  minimum inhibitory concentration (MIC): 12.5
[2]
  minimum inhibitory concentration (MIC): 1.56
[3]
  minimum inhibitory concentration (MIC): 12.5
[4]
  minimum inhibitory concentration (MIC): 50
[5]
  minimum inhibitory concentration (MIC): 100
[6]
  minimum inhibitory concentration (MIC): 0.78
[7]
  minimum inhibitory concentration (MIC): 25
[8]
  minimum inhibitory concentration (MIC): 0.78
[9]
  minimum inhibitory concentration (MIC): ≤ 0.1
[10]
  minimum inhibitory concentration (MIC): 6.25

## CC1(C)S[C@@H]2[C@H](NC(=O)Cc3ccccc3)C(=O)N2[C@H]1C(=O)O [Potassium Penicillin G]
[11]
  relative activity value, Cephalosporinase Serratia W-8: 21
[12]
  relative activity value, Cephalosporinase Pseudomonas aeruginosa TN 918: 16
[13]
  relative activity value, Penicillinase E. coli TK-3: 100

## CCN1CCN(C(=O)N[C@@H](C(=O)N[C@]2(OC)C(=O)N3C(C(=O)O)=C(CSc4nnc(C)s4)CS[C@@H]32)c2ccccc2)C(=O)C1=O [Compound No. 3, 7β-[D(-)-α-(4-ethyl-2,3-dioxo-1-piperazinylcarbonylamino)phenylacetamido]-7α-methoxy-3-[2-(5-methyl-1,3,4-thiadiazolyl)thiomethyl]-Δ^3-cephem-4-carboxylic acid]
[1]
  minimum inhibitory concentration (MIC): 25
[2]
  minimum inhibitory concentration (MIC): 6.25
[3]
  minimum inhibitory concentration (MIC): 100
[4]
  minimum inhibitory concentration (MIC): 200
[5]
  minimum inhibitory concentration (MIC): > 200
[6]
  minimum inhibitory concentration (MIC): 1.56
[7]
  minimum inhibitory concentration (MIC): 100
[8]
  minimum inhibitory concentration (MIC): 3.13
[9]
  minimum inhibitory concentration (MIC): ≤ 0.1
[10]
  minimum inhibitory concentration (MIC): 12.5

## O=C(Cc1cccs1)N[C@@H]1C(=O)N2C(C(=O)[O-])=C(C[n+]3ccccc3)CS[C@H]12 [Cephalorigine]
[11]
  relative activity value, Cephalosporinase Serratia W-8: 100
[12]
  relative activity value, Cephalosporinase Pseudomonas aeruginosa TN 918: 100
[13]
  relative activity value, Penicillinase E. coli TK-3: 115

## CCN1CCN(C(=O)N[C@@H](C(=O)N[C@]2(OC)C(=O)N3C(C(=O)O)=C(COC(C)=O)CS[C@@H]32)c2ccc(O)cc2)C(=O)C1=O [Compound No. 5, 7β-[D(-)-α-(4-ethyl-2,3-dioxo-1-piperazinylcarbonylamino)-p-hydroxyphenylacetamido]-7α-methoxy-3-acetoxymethyl-Δ^3-cephem-4-carboxylic acid]
[3]
  minimum inhibitory concentration (MIC): 12.5
[4]
  minimum inhibitory concentration (MIC): 200
[5]
  minimum inhibitory concentration (MIC): 25
[6]
  minimum inhibitory concentration (MIC): 0.78
[7]
  minimum inhibitory concentration (MIC): 100
[8]
  minimum inhibitory concentration (MIC): 3.13
[9]
  minimum inhibitory concentration (MIC): ≤ 0.1
[10]
  minimum inhibitory concentration (MIC): 25

## CCN1CCN(C(=O)N[C@@H](C(=O)N[C@]2(OC)C(=O)N3C(C(=O)O)=C(CSc4nnnn4C)CS[C@@H]32)c2ccc(O)cc2)C(=O)C1=O [Compound No. 2, 7β-[D(-)-α-(4-ethyl-2,3-dioxo-1-piperazinylcarbonylamino)-p-hydroxyphenylacetamido]-7α-methoxy-3-[5-(1-methyl-1,2,3,4-tetrazolyl)thiomethyl]-Δ^3-cephem-4-carboxylic acid]
[1]
  minimum inhibitory concentration (MIC): 6.25
[2]
  minimum inhibitory concentration (MIC): 1.56
[3]
  minimum inhibitory concentration (MIC): 6.25
[4]
  minimum inhibitory concentration (MIC): 100
[5]
  minimum inhibitory concentration (MIC): 100
[6]
  minimum inhibitory concentration (MIC): 0.2
[7]
  minimum inhibitory concentration (MIC): 100
[8]
  minimum inhibitory concentration (MIC): 0.39
[9]
  minimum inhibitory concentration (MIC): ≤ 0.1
[10]
  minimum inhibitory concentration (MIC): 6.25

## CCN1CCN(C(=O)N[C@@H](C(=O)N[C@]2(OC)C(=O)N3C(C(=O)O)=C(COC(C)=O)CS[C@@H]32)c2ccccc2)C(=O)C1=O [Compound No. 4, 7β-[D(-)-α-(4-ethyl-2,3-dioxo-1-piperazinylcarbonylamino)phenylacetamido]-7α-methoxy-3-acetoxymethyl-Δ^3-cephem-4-carboxylic acid]
[3]
  minimum inhibitory concentration (MIC): 50
[4]
  minimum inhibitory concentration (MIC): 200
[6]
  minimum inhibitory concentration (MIC): 1.56
[7]
  minimum inhibitory concentration (MIC): 100
[8]
  minimum inhibitory concentration (MIC): 1.56
[9]
  minimum inhibitory concentration (MIC): ≤ 0.1
[10]
  minimum inhibitory concentration (MIC): 12.5
[11]
  relative activity value, Cephalosporinase Serratia W-8: < 0.06
[12]
  relative activity value, Cephalosporinase Pseudomonas aeruginosa TN 918: < 0.4
[13]
  relative activity value, Penicillinase E. coli TK-3: < 0.04
